Assay results from patent US8673289B2, “Attenuated uracil auxotroph of an apicomplexan and use thereof” (priority 2007, dated 2014).
Where a chain is given by its changes, count along the chain named. Names and notes keep the numbering of the source. Where two headings read alike, the source gives them in different places.

Tests used:
wild-type T. gondii = test: labeling of parasites with [3H]pyrimidines (pyrimidine salvage); assay type: cell-based, Toxoplasma gondii; details: parasites grown in host cells
Method: Initial experiments primarily involved an enzymatic analysis of drug resistant mutants and the incorporation of various pyrimidine analogs into T. gondii RNA and DNA as an indication of pyrimidine salvage when parasites were grown in either normal host or mutant host cells. All biochemical communications between the parasite and host cells cross the vacuolar membrane which is now known to contain “pores” that permit the passage of nucleobases ranging in molecular mass from 112 daltons up to 244 daltons. The size of the pores is estimated to be approximately 1500 daltons. A T. gondii mutant resistant to 5-fluorodeoxyuridine (FUDR-1) had lost uracil phosphoribosyltransferase (UPRT), an enzyme which is absent in normal host cells (Pfefferkorn (1978) Expt. Parasitol. 44:26-35). […] FUDR-1 mutant parasites were not labeled with [^3H]deoxyuridine. […] FUDR-1 mutant parasites were not labeled with [^3H]uridine. […] FUDR-1 (UPRT knock-out) parasites were not labeled with [^3H]uracil.
Similarly, since uracil only labels the parasite, due to the parasite UPRT, which is absent in the host, the pyrimidine pools of the parasite are also unavailable to the host. Thus, there is no detectable pyrimidine traffic detected between the parasite and host.

cps1 and cps2 mutants = test: pyrimidine dependence of cps1 and cps2 replication and plaque formation; assay type: cell-based, Toxoplasma gondii; details: relatively low (thymine, thymidine: moderate) concentrations in medium
Excerpt: However, all of these mutants are somewhat “leaky” in that there was not an absolute growth (replication) dependence on uracil addition to the growth medium for replication. Each of these mutants grows at a moderate (½ of normal) growth rate for the first 2 days following infection of a host cell producing vacuoles that contained 16 to 32 parasites by 3 days post infection. In contrast, RH parasites are lysed out of their primary vacuoles at this time (3 days, >64 parasites). However, the cps mutants slow after 3 days and many parasites never (about ⅓) break out of their primary vacuole. If the primary vacuole breaks, a few parasites can be detected at the site of infection but the infection site always involves a small zone of infection that never forms a visible plaque in a standard 7 day plaque assay. To quantitate growth of these mutants, HFF flasks were inoculated with […] or cps2 parasites (about a multiplicity of infection (MOI) of 1 parasite per 20 HFF cells). After 2 hours of attachment and invasion (all of these mutants have normal attachment and invasion phenotypes as scored by counting percent entered parasites into host cells as a function of time post-inoculation), different concentrations of different pyrimidine compound was added to parallel infected HFF flasks. As a function of time post pyrimidine addition (t=0 hour) the number of parasites per vacuole was scored for 50 vacuoles as described by Fox et al. ((1999) supra). The number of parasite doublings was calculated based on 1 parasite entering each primary vacuole. Thus, 1 doubling=2 parasites per vacuole, 3 doublings=8 parasites per vacuole, and 5 doublings=32 parasites per vacuole. The pyrimidine dependence of cps1 and cps2 replication (doublings of parasites in the vacuole) was plotted graphically. […] The response to thymine and thymidine was additionally informative about the cause of the growth defect in cps1 and cps2. […] This is believed to be caused by the putative defect in the cps1 and cps2 mutants which is a reduced “pool” size of UMP. If UMP pools (ultimately used for RNA and DNA synthesis) are lowered it follows that a resulting decrease in TMP pools is expected since UMP is the precursor of TMP in T. gondii and all other apicomplexan parasites which normally lack TK activity. However, since cps1 and cps2 now express a TK activity carried into the parasite by the p53KOX3-1R plasmid, exemplified by sensitivity of these mutants to ganciclovir (specific to HSV TK), feeding parasites either thymine or thymidine is expected to increase TMP pools. Thus, it appears that moderate levels of thymine or thymidine partially rescue growth of cps1 and cps2 by restoring TMP pools. […] Since the parasite has no mechanism to convert TMP back to UMP there is still a defect in the UMP pool in cps1 and cps2 even with added thymine or thymidine and rescue is never complete. The ability of cps1 and cps2 mutants to form plaques on HFF monolayers in the standard 7 day assay paralleled the pyrimidine dependence of parasite replication in vacuoles.
The cps1 and cps2 mutants were inoculated intraperitoneally (i.p.) into balb/c mice to measure parasite virulence compared to virulent RH parasites. Both mutant cps1 and cps2 had equal virulence as RH parasites in balb/c mice (Jackson Labs), killing all mice within 10 days of i.p. inoculation (group size was four mice per parasite strain). Only 100 parasites (˜50 PFU) of each parasite strain was needed to kill all mice in each group. This pattern of virulence can be understood by re-examining the pyrimidine dependence of cps1 and cps2 growth. Uridine is believed to be the pyrimidine responsible for virulence of cps1 and cps2 in mice. Only 5 μM uridine completely rescues normal plaque size of cps1 and cps2 in vitro. Plasma concentrations of uridine in mice are approximately 5 to 10 μM.

cps1-1 and cps2-1 = test: pyrimidine rescue of cps1-1 and cps2-1 replication and plaque formation; assay type: cell-based, Toxoplasma gondii; details: 36-hour replication assay, HFF
Method: No pyrimidine compound at less than 25 μM could rescue plaque formation of cps1-1 or cps2-1. […] Uridine was quite poor at rescue of plaque formation in cps1-1 and cps2-1.
A more detailed growth response to pyrimidine, measured as parasite replications (doublings) was performed for cps1-1 and cps2-1 and compared to the results previously obtained for […]. […] Uridine rescue was poor, with a slow restoration of growth at very high amounts, >400 μM. Deoxyuridine rescue was significant, but again, full growth rate was not restored at any concentration of deoxyuridine. Rescue with uracil was robust, but only in a limited range of concentration. Full restoration of growth rate in cps1-1 and cps2-1 was possible only with uracil added between 200 and 400 μM. […] This phenotype can only be observed in T. gondii pyrimidine auxotroph mutants, not in wild-type parasites with intact de novo pyrimidine synthesis pathways.
The pyrimidine growth dependence of mutant cps1-1 on the pyrimidine salvage pathway was further documented in thymidine interference experiments. Mutant cps1-1 plaques well in 250 μM uracil or deoxyuridine, but not in 1000 μM thymidine. Since thymidine at 1000 μM is known to inhibit approximately 90% of the parasite nucleoside phosphorylase activity specific for cleavage of deoxyuridine (Iltzsch, (1993) J. Euk. Micro. 40:24-28), growth of cps1-1 was tested in combinations of 1000 μM thymidine and 250 μM uracil or 250 μM deoxyuridine. All pyrimidine salvage in T. gondii must pass through uracil and UPRT conversion of uracil to UMP. In contrast, thymidine has no effect on UPRT activity. Thus, if growth of cps1-1 were dependent on deoxyuridine supplementation then replication in this condition may be inhibited by co-supplementing with 1000 μM thymidine. […] Thus, when cps1-1 is grown in deoxyuridine the parasite strictly requires nucleoside phosphorylase activity to cleave deoxyuridine for growth. […] Thus, cps1-1 and cps2-1 rely strictly on pyrimidine salvage enzymes for growth and further, the HFF host cell in vitro cannot supply sufficient pyrimidines for growth of cps1-1 or cps2-1. […] Such potential inhibitors can only be identified using a pyrimidine auxotroph such as provided in the instant invention.
To assess reversion, 10^6 to 10^7 cps1-1 or cps2-1 parasites were periodically inoculated into HFF flasks supplemented with 5 μM uridine. This concentration of uridine is sufficient to rescue the parent strains (cps1 and cps2) of cps1-1 and cps2-1.

E. coli CPS = details: cited from earlier work

O=C(O)c1cc(=O)[nH]c(=O)[nH]1 [orotic acid]
incorporation of [3H]-labeled pyrimidine into wild-type parasites (wild-type T. gondii): did not incorporate

Nc1ccn([C@H]2C[C@H](O)[C@@H](CO)O2)c(=O)n1 [deoxycytidine]
rescue of growth rate / replication of cps1 and cps2 (cps1 and cps2 mutants): completely rescued | rescue of replication (doublings) of cps1-1 and cps2-1 (cps1-1 and cps2-1): remained as a single non-replicated parasite

Nc1ccn([C@@H]2O[C@H](CO)[C@@H](O)[C@H]2O)c(=O)n1 [cytidine]
incorporation of [3H]-labeled pyrimidine into wild-type parasites (wild-type T. gondii): did not incorporate | rescue of growth rate / replication of cps1 and cps2 (cps1 and cps2 mutants): completely rescued | rescue of replication (doublings) of cps1-1 and cps2-1 (cps1-1 and cps2-1): remained as a single non-replicated parasite

Nc1cc[nH]c(=O)n1 [cytosine]
incorporation of [3H]-labeled pyrimidine into wild-type parasites (wild-type T. gondii): did not incorporate | rescue of growth rate / replication of cps1 and cps2 (cps1 and cps2 mutants): did not rescue at all | rescue of replication (doublings) of cps1-1 and cps2-1 (cps1-1 and cps2-1): remained as a single non-replicated parasite

B1: E. c. G359F: E. coli CPS with ammonia tunnel wall mutation G359F (protein, UniProt P0A6F1 1-382; P00968 2-1073, looked up, variant G359F)
Carbamoyl phosphate synthase … 1: MIKSALLVLEDGTQFHGRAIGATGSAVGEVVFNTSMTGYQEILTDPSYSRQIVTLTYPHIGNVGTNDADEESSQVHAQGLVIRDLPLIASNFRNTEDLSSYLKRHNIVAIADIDTRKLTRLLREKGAQNGCIIAGDNPDAALALEKARAFPGLNGMDLAKEVTTAEAYSWTQGSWTLTGGLPEAKKEDELPFHVVAYDFGAKRNILRMLVDRGCRLTIVPAQTSAEDVLKMNPDGIFLSNGPGDPAPCDYAITAIQKFLETDIPVFGICLGHQLLALASGAKTVKMKFGHHGGNHPVKDVEKNVVMITAQNHGFAVDEATLPANLRVTHKSLFDGTLQGIHRTDKPAFSFQGHPEASPFPHDAAPLFDHFIELIEQYRKTAK
Carbamoyl phosphate synthase … 2: PKRTDIKSILILGAGPIVIGQACEFDYSGAQACKALREEGYRVILVNSNPATIMTDPEMADATYIEPIHWEVVRKIIEKERPDAVLPTMGGQTALNCALELERQGVLEEFGVTMIGATADAIDKAEDRRRFDVAMKKIGLETARSGIAHTMEEALAVAADVGFPCIIRPSFTMGGSGGGIAYNREEFEEICARGLDLSPTKELLIDESLIGWKEYEMEVVRDKNDNCIIVCSIENFDAMGIHTGDSITVAPAQTLTDKEYQIMRNASMAVLREIGVETGGSNVQFAVNPKNGRLIVIEMNPRVSRSSALASKATGFPIAKVAAKLAVGYTLDELMNDITGGRTPASFEPSIDYVVTKIPRFNFEKFAGANDRLTTQMKSVGEVMAIGRTQQESLQKALRGLEVGATGFDPKVSLDDPEALTKIRRELKDAGADRIWYIADAFRAGLSVDGVFNLTNIDRWFLVQIEELVRLEEKVAEVGITGLNADFLRQLKRKGFADARLAKLAGVREAEIRKLRDQYDLHPVYKRVDTCAAEFATDTAYMYSTYEEECEANPSTDREKIMVLGGGPNRIGQGIEFDYCCVHASLALREDGYETIMVNCNPETVSTDYDTSDRLYFEPVTLEDVLEIVRIEKPKGVIVQYGGQTPLKLARALEAAGVPVIGTSPDAIDRAEDRERFQHAVERLKLKQPANATVTAIEMAVEKAKEIGYPLVVRPSYVLGGRAMEIVYDEADLRRYFQTAVSVSNDAPVLLDHFLDDAVEVDVDAICDGEMVLIGGIMEHIEQAGVHSGDSACSLPAYTLSQEIQDVMRQQVQKLAFELQVRGLMNVQFAVKNNEVYLIEVNPRAARTVPFVSKATGVPLAKVAARVMAGKSLAEQGVTKEVIPPYYSVKEVVLPFNKFPGVDPLLGPEMRSTGEVMGVGRTFAEAFAKAQLGSNSTMKKHGRALLSVREGDKERVVDLAAKLLKQGFELDATHGTAIVLGEAGINPRLVNKVHEGRPHIQDRIKNGEYTYIINTTSGRRAIEDSRVIRRSALQYKVHYDTTLNGGFATAMALNADATEKVISVQEMHAQIK
modifications: mutation in small subunit
Effect on CPS or CPSII (E. coli CPS; effect on GATase-CPS coupling): Uncouples GATase & CPS

B2: E. c. E761A: E. coli CPS with K-loop mutation E761A (protein, UniProt P0A6F1 1-382; P00968 2-1073, looked up, variant E761A)
Carbamoyl phosphate synthase … 1: B1 Carbamoyl phosphate synthase … 1 with F359G
Carbamoyl phosphate synthase … 2: B1 Carbamoyl phosphate synthase … 2 with E760A
modifications: mutation in large subunit
Effect on CPS or CPSII (E. coli CPS; effect on UMP repression): Abolishes UMP repression | Effect on CPS or CPSII (E. coli CPS; effect on ornithine activation): Abolishes ornithine activation

B3: E. c. T974A: E. coli CPS with regulatory domain mutation T974A (protein, UniProt P0A6F1 1-382; P00968 2-1073, looked up, variant T974A)
Carbamoyl phosphate synthase … 1: B1 Carbamoyl phosphate synthase … 1 with F359G
Carbamoyl phosphate synthase … 2: B1 Carbamoyl phosphate synthase … 2 with T973A
modifications: mutation in large subunit
Effect on CPS or CPSII (E. coli CPS; effect on IMP activation): Abolishes IMP activation | Effect on CPS or CPSII (E. coli CPS; effect on UMP repression): Abolishes UMP repression | Effect on CPS or CPSII (E. coli CPS; effect on ornithine activation): Reduces ornithine activation

B4: E. c. H781K: E. coli CPS with K-loop mutation H781K (protein, UniProt P0A6F1 1-382; P00968 2-1073, looked up, variant H781K)
Carbamoyl phosphate synthase … 1: B1 Carbamoyl phosphate synthase … 1 with F359G
Carbamoyl phosphate synthase … 2: B1 Carbamoyl phosphate synthase … 2 with H780K
modifications: mutation in large subunit
Effect on CPS or CPSII (E. coli CPS; effect on UMP repression): Reduces UMP repression | Effect on CPS or CPSII (E. coli CPS; effect on ornithine activation): Reduces ornithine activation

B5: E. c. C269A: E. coli CPS with catalytic triad mutation C269A (protein, UniProt P0A6F1 1-382; P00968 2-1073, looked up, variant C269A)
Carbamoyl phosphate synthase … 1: B1 Carbamoyl phosphate synthase … 1 with C269A, F359G
Carbamoyl phosphate synthase … 2: B1 Carbamoyl phosphate synthase … 2
modifications: mutation in small subunit
Effect on CPS or CPSII (E. coli CPS): Abolishes GATase activity
